Test results: PMC11171218, “N-Benzylated 5-Hydroxybenzothiophene-2-carboxamides as Multi-Targeted Clk/Dyrk Inhibitors and Potential Anticancer Agents” (Cancers, 2024)

How the values were obtained:
Format in all cases: cell-based, human
[1] = system: T24 cells; test: Cell cycle assay (PI staining, flow cytometry); details: 30–50 µM, 24 h
Description: Cells were fixed with 75% ethanol and then stained with 50 μg/mL propidium iodide (PI; Cat# P4170, Sigma-Aldrich, St. Louis, MO, USA) at room temperature for 1 h. Cell cycle was analyzed by flow cytometry.
Figure 2 Analysis of cell cycle progression upon treatment with compounds 12 and 17. T24 cells were treated with DMSO (0.1%), 12 (30–50 µM), or 17 (30–50 µM) for 24 h. Cell cycle was examined by propidium iodide (PI) staining and flow cytometry. All data are expressed as the mean ± S.E.M. (n = 3).

[2] = system: cleaved caspase-3; test: Western blot, cleaved caspase-3 in T24 cells; details: 10–50 μM, 24 h
Text: (§1) Cell lysates were sequentially suspended in commercial RIPA Buffer (pH 7.4; Cat# RB4475, Bio Basic, Markham, Ontario, Canada) containing Protease Inhibitor Cocktail and PhosSTOP (Merck, Darmstadt, Germany), boiled in sodium dodecyl sulphate (SDS) sample buffer, separated by SDS-polyacrylamide gel electrophoresis (PAGE), and electrophoresed onto a PVDF membrane. Antibodies used in this study were Bcl-2 (Cat#A19693, RRID: AB_2862738) and Bax (Cat# A0207, RRID: AB_2757021) from ABclonal (Boston, MA, USA); cleaved caspase-3 (Cat# 9662, RRID: AB_331439) and GAPDH (Cat# 8884, RRID:AB_11129865) from Cell Signaling Technology (Beverly, MA, USA). The labeled signals were determined using HRP-conjugated secondary antibodies and the Bio-rad ChemiDoc™ MP Imaging System (Berkeley, CA, USA).
(§2) Figure 4 Examining the effect of 12 and 17 on proapoptotic and antiapoptotic pathways. T24 cells were treated with DMSO (0.1%), 12 (30–50 µM), or 17 (30–50 µM) for 24 h. Expression levels of cleaved caspase-3, Bax, Bcl-2, and GAPDH were analyzed by Western blot by corresponding antibodies. The quantitation of the cleaved caspase-3/GAPDH, Bax/GAPDH, and Bcl-2/GAPDH ratio are shown. All data are expressed as the mean ± S.E.M. (n = 3). * p < 0.05, ** p < 0.01, *** p < 0.001 compared with the DMSO group.

[3] = system: Bax; test: Western blot, Bax in T24 cells; details: 10–50 μM, 24 h
Text: as §1, §2

[4] = system: Bcl-2; test: Western blot, Bcl-2 in T24 cells; details: for Decrease in the antiapoptotic marker Bcl-2: 50 μM; for Expression of antiapoptotic protein Bcl-2: 10–50 μM, 24 h, Western blot
Text: as §1, §2

Row | Compound | Effect on cell cycle progression [1] | Level of cleaved caspase-3 [2] | Level of Bax [3] | Decrease in the antiapoptotic marker Bcl-2 [4] | Expression of antiapoptotic protein Bcl-2 [4]
1 | COc1cccc(CNC(=O)c2cc3cc(O)ccc3s2)c1 [Compound 12, 5-Hydroxy-N-(3-methoxybenzyl)benzo[b]thiophene-2-carboxamide] | much weaker than those of compound 17 | increased the proapoptotic levels of cleaved caspase-3 and Bax | increased the proapoptotic levels of cleaved caspase-3 and Bax | approximately 0.5 fold | decreased the expression of the antiapoptotic protein, Bcl-2
2 | O=C(NCc1cc(F)cc(F)c1)c1cc2cc(O)ccc2s1 [Compound 17, N-(3,5-Difluorobenzyl)-5-hydroxybenzo[b]thiophene-2-carboxamide] | retain the cells in the G2/M phase | increased the proapoptotic levels of cleaved caspase-3 and Bax | increased the proapoptotic levels of cleaved caspase-3 and Bax | approximately 0.5 fold | decreased the expression of the antiapoptotic protein, Bcl-2
